Measured values as given in patent US20250034182A1, “PHOSPHOLIPID COMPOUNDS AND METHODS OF MAKING AND USING THE SAME” (priority 2021, published 2025).

Columns and labels:
Format in all cases: cell-based
[1] = test system: CAN97-83-GFP1 (A2a) hMPV in H1-HeLa cells; assay: hMPV H1-Hela EC50, anti-nucleoprotein ELISA (Example X); details: human metapneumovirus, 96 h, read-out: hMPV H1-Hela EC50 (nM) (per Ex. X)
Method: The human metapneumoavirus (hMPV) anti-viral assay is an anti-nucleoprotein ELISA performed in infected H1-HeLa cells. H1-HeLa cells were maintained in Dulbecco's Modified Eagle's Medium with high glucose (Gibco, Cat #: 11995073) supplemented with 10% FBS (HyClone, Cat #: SH303396.03), 100 units/mL penicillin and 100 μg/mL streptomycin (Gibco, Cat #: 15140122). One day before infection, H1-HeLa cells were seeded into 96-well plates (Corning, Cat. #: 3903) at 0.1 mL/well at 1.5×10^5 cells/mL in Opti-MEM (Gibco, Cat #: 31985070) supplemented with 2% FBS, and were incubated at 37° C. in a 100% humid atmosphere containing 5% (v/v) CO2 overnight. On the next day, CAN97-83-GFP1 (A2a) hMPV was diluted in Opti-MEM medium containing 200 μg/mL CaCl2) and 2 μg/mL TPCK treated trypsin and distributed to the 96-well plates at 0.1 mL/well for an MOI=0.1. Test compounds were distributed to each well using a HP D300e digital dispenser with a final volume of 200 µL/well. After the plates were centrifuged at 700 g for one hour at room temperature, they were maintained in a humidified chamber at 37-C with 5% (v/v) CO2 for 96 hours. After the incubation, the medium was removed, and the plates were fixed with 0.1 mL/well 1% formaldehyde for 15 min at room temperature. The fixative was removed, the plates were air dried for 30-60 minutes, and then permeabilized with 0.1 mL/well 0.5% Triton X-100 in PBS for five minutes at room temperature. Following permeabilization, the plates were washed once with 0.1 mL/well blocking buffer consisting of 10% FBS (HyClone, Cat #: SH303396.03), 5% dry milk (AmericanBio, Cat #: AB10109-01000), and 0.1% Tween 20 (EMD Millipore, Cat #655204) in PBS. The plates were blocked with 0.1 mL/well blocking buffer for 60 minutes at 37° C. afterward. The blocking buffer was removed and 0.05 mL/well human metapneumovirus nucleocapsid antibody (Sigma, Cat #MAB80121) diluted 1:500 in Blocking buffer was added and incubated for two hours at 37-C. The plates were then washed with 0.2 mL/well 0.1% Tween 20/PBS five times, followed by addition of 0.05 mL/well of horseradish peroxidase (HRP) conjugated goat anti-mouse IgG antibody (Fisher Scientific, Cat #501077607) at 1:2000 dilution in the blocking buffer. After one-hour incubation at 37-C, plates were washed five times with 0.2 mL/well 0.1% tween 20 in PBS. The HRP signals were developed by adding 0.1 mL/well of TMB reagent (Thermo Scientific, Cat #: ENN301) and incubating at room until the positive control was apparent. At that point, the reaction was stopped by adding 0.1 mL/well TMB stop solution (SeraCare, Cat #: 5150-0021). The absorbance was measured at 450 nm with an EnVision plate reader. The relative absorbance was calculated by normalizing the absorbance of the compound-treated groups to that of the DMSO-treated groups (set as 100%). EC50 values were calculated using a nonlinear four parameter variable slope regression model.

[2] = HCV Replicon 2A CC50, calcein AM (Example Q); details: calcein AM fluorescence, read-out: HCV Replicon 2A CC50 (nM) (per Ex. Q)
Method: (§1) Compounds were serially diluted in ten steps of 1:3 dilutions in 384-well plates. All serial dilutions were performed in four replicates per compound within the same 384-well plate. An HCV protease inhibitor ITMN-191 at […] was added as a control of 100% inhibition of HCV replication while puromycin at 10 mM was included as a control of 100% cytotoxicity. To each well of a black polystyrene 384-well plate (Greiner Bio-one, Monroe, NC), 90 μL of cell culture medium (without Geneticin) containing 2000 suspended HCV replicon cells was added with a Biotek μFlow workstation. For compound transfer into cell culture plates, 0.4 μL of compound solution from the compound serial dilution plate was transferred to the cell culture plate on a Biomek FX workstation. The DMSO concentration in the final assay wells was 0.44%. The plates were incubated for 3 days at 37° C. with 5% CO2 and 85% humidity. The HCV replicon assay was a multiplex assay, able to assess both cytotoxicity and antireplicon activity from the same well. The CC50 assay was performed first. The media in the 384-well cell culture plate was aspirated, and the wells were washed four times with 100 μL of PBS each, using a Biotek ELX405 plate washer. A volume of 50 μL of a solution containing 400 nM calcein AM (Anaspec, Fremont, CA) in 1×PBS was added to each well of the plate with a Biotek μFlow workstation. The plate was incubated for 30 min at room temperature before the fluorescence signal (excitation 490 nm, emission 520 nm) was measured with a Perkin-Elmer Envision plate reader. The EC50 assay was performed in the same wells as the CC50 assay. The calcein-PBS solution in the 384-well cell culture plate was aspirated with a Biotek ELX405 plate washer. A volume of 20 μL of Dual-Glo luciferase buffer (Promega, Madison, WI) was added to each well of the plate with a Biotek μFlow Workstation. The plate was incubated for 10 min at room temperature. A volume of 20 μL of a solution containing a 1:100 mixture of Dual-Glo Stop & Glo substrate (Promega, Madison, WI) and Dual-Glo Stop & Glo buffer (Promega, Madison, WI) was added to each well of the plate with a Biotek μFlow Workstation. The plate was then incubated at room temperature for 10 min before the luminescence signal was measured with a Perkin-Elmer Envision Plate Reader.

[3] = HCV Replicon 1B CC50, calcein AM (Example Q); details: calcein AM fluorescence, read-out: HCV Replicon 1B CC50 (nM) (per Ex. Q)
Method: as §1

Compound | EC50 [1] [nM] | further results
CCCCCCCCCCCCCCCCOC[C@@H](COP(=O)(O)OC[C@@]1(C#N)O[C@@H](c2ccc3c(N)ncnn23)[C@H](O)[C@@H]1O)OCc1cc(F)cc(C#N)c1 [Compound 88, ((2R,3S,4R,5S)-5-(4-aminopyrrolo[2,1-f][1,2,4]triazin-7-yl)-2-cyano-3,4-dihydroxytetrahydrofuran-2-yl)methyl ((S)-2-((3-cyano-5-fluorobenzyl)oxy)-3-(hexadecyloxy)propyl) hydrogen phosphate] | 348 | –
CCCCCCCCCCCCCCCCC[C@H](COP(=O)(O)OC[C@@]1(C#N)O[C@@H](c2ccc3c(N)ncnn23)[C@H](O)[C@@H]1O)OCc1cc(Cl)cc(C#N)c1 [Compound 76, ((2R,3S,4R)-5-(4-aminopyrrolo[2,1-f][1,2,4]triazin-7-yl)-2-cyano-3,4-dihydroxytetrahydrofuran-2-yl)methyl ((R)-2-((3-chloro-5-cyanobenzyl)oxy)nonadecyl) hydrogen phosphate] | 517 | –
CCCCCCCCCCCCCCCCCCC[C@H](COP(=O)(O)OC[C@@]1(C#N)O[C@@H](c2ccc3c(N)ncnn23)[C@H](O)[C@@H]1O)Oc1ccc(C#N)c(OC(C)C)c1 [Compound 38, ((2R,3S,4R,5S)-5-(4-aminopyrrolo[2,1-f][1,2,4]triazin-7-yl)-2-cyano-3,4-dihydroxytetrahydrofuran-2-yl)methyl ((R)-2-(4-cyano-3-isopropoxyphenoxy)henicosyl) hydrogen phosphate] | 137 | –
CCCCCCCCCCCCCCCCCCCC[C@H](COP(=O)(O)OC[C@@]1(C#N)O[C@@H](c2ccc3c(N)ncnn23)[C@H](O)[C@@H]1O)Oc1cccc(C#N)c1 [Compound 51, ((2R,3S,4R,5S)-5-(4-aminopyrrolo[2,1-f][1,2,4]triazin-7-yl)-2-cyano-3,4-dihydroxytetrahydrofuran-2-yl)methyl ((R)-2-(3-cyanophenoxy)docosyl) hydrogen phosphate] | – | CC50 at 3 days ([2]; HCV replicon cells (2A)): > 44400 nM; CC50 at 3 days ([3]; HCV replicon cells (1B)): > 44400 nM
CCCCCCCCCCCCCCCCCCOC[C@H](COP(=O)(O)OC[C@@]1(C#N)O[C@@H](c2ccc3c(N)ncnn23)[C@H](O)[C@@H]1O)OCc1ccc(C#N)cc1OC [Compound 73, ((2R,3S,4R)-5-(4-aminopyrrolo[2,1-f][1,2,4]triazin-7-yl)-2-cyano-3,4-dihydroxytetrahydrofuran-2-yl)methyl ((R)-2-((4-cyano-2-methoxybenzyl)oxy)-3-(octadecyloxy)propyl) hydrogen phosphate] | – | CC50 at 3 days ([2]; HCV replicon cells (2A)): > 44400 nM; CC50 at 3 days ([3]; HCV replicon cells (1B)): > 44400 nM
CCCCCCCCCCCCCCCCCCCC[C@@H](COP(=O)(O)OC[C@@]1(C#N)O[C@@H](c2ccc3c(N)ncnn23)[C@H](O)[C@@H]1O)OCc1cc(F)cc(C#N)c1 [Compound 70, ((2R,3S,4R)-5-(4-aminopyrrolo[2,1-f][1,2,4]triazin-7-yl)-2-cyano-3,4-dihydroxytetrahydrofuran-2-yl)methyl ((S)-2-((3-cyano-5-fluorobenzyl)oxy)docosyl) hydrogen phosphate] | – | CC50 at 3 days ([2]; HCV replicon cells): 42700 nM; CC50 at 3 days ([3]; HCV replicon cells): > 44400 nM
CCCCCCCCCCCCCCCCCCC[C@H](COP(=O)(O)OC[C@@]1(C#N)O[C@@H](c2ccc3c(N)ncnn23)[C@H](O)[C@@H]1O)OCc1cc(F)cc(C#N)c1 [Compound 25, ((2R,3S,4R,5S)-5-(4-aminopyrrolo[2,1-f][1,2,4]triazin-7-yl)-2-cyano-3,4-dihydroxytetrahydrofuran-2-yl)methyl ((R)-2-((3-cyano-5-fluorobenzyl)oxy)henicosyl) hydrogen phosphate] | 1280 | –
CCCCCCCCCCCCCCCCCCCC[C@H](COP(=O)(O)OC[C@@]1(C#N)O[C@@H](c2ccc3c(N)ncnn23)[C@H](O)[C@@H]1O)OCc1cc(F)cc(C#N)c1 [Compound 34, ((2R,3S,4R)-5-(4-aminopyrrolo[2,1-f][1,2,4]triazin-7-yl)-2-cyano-3,4-dihydroxytetrahydrofuran-2-yl)methyl ((R)-2-((3-cyano-5-fluorobenzyl)oxy)docosyl) hydrogen phosphate] | 646 | –
CCCCCCCCCCCCCCCCCCC[C@H](COP(=O)(O)OC[C@@]1(C#N)O[C@@H](c2ccc3c(N)ncnn23)[C@H](O)[C@@H]1O)OCc1ccc(C#N)c(OC(C)C)c1 [Compound 28, ((2R,3S,4R,5S)-5-(4-aminopyrrolo[2,1-f][1,2,4]triazin-7-yl)-2-cyano-3,4-dihydroxytetrahydrofuran-2-yl)methyl ((R)-2-((4-cyano-3-isopropoxybenzyl)oxy)henicosyl) hydrogen phosphate] | 625 | –
CCCCCCCCCCCCCCCCCC[C@H](COP(=O)(O)OC[C@@]1(C#N)O[C@@H](c2ccc3c(N)ncnn23)[C@H](O)[C@@H]1O)OCc1cc(F)cc(C#N)c1 [Compound 84, ((2R,3S,4R,5S)-5-(4-aminopyrrolo[2,1-f][1,2,4]triazin-7-yl)-2-cyano-3,4-dihydroxytetrahydrofuran-2-yl)methyl ((R)-2-((3-cyano-5-fluorobenzyl)oxy)icosyl) hydrogen phosphate] | 367 | –
CCCCCCCCCCCCCCCCCCOC[C@H](COP(=O)(O)OC[C@@]1(C#N)O[C@@H](c2ccc3c(N)ncnn23)[C@H](O)[C@@H]1O)Oc1ccc(C#N)c(OC(C)C)c1 [Compound 23, ((2R,3S,4R,5S)-5-(4-aminopyrrolo[2,1-f][1,2,4]triazin-7-yl)-2-cyano-3,4-dihydroxytetrahydrofuran-2-yl)methyl ((R)-2-(4-cyano-3-isopropoxyphenoxy)-3-(octadecyloxy)propyl) hydrogen phosphate] | 156 | –
CCCCCCCCCCCCCCCCCCOCC(COc1cc(F)cc(C#N)c1)COP(=O)(O)OC[C@@]1(C#N)O[C@@H](c2ccc3c(N)ncnn23)[C@H](O)[C@@H]1O (stereo partly drawn) [Compound 43, ((2R,3S,4R,5S)-5-(4-aminopyrrolo[2,1-f][1,2,4]triazin-7-yl)-2-cyano-3,4-dihydroxytetrahydrofuran-2-yl)methyl (3-(3-cyano-5-fluorophenoxy)-2-((octadecyloxy)methyl)propyl) hydrogen phosphate] | 901 | –
